Assay results as given in PMC11996864, “A small-molecule inhibitor of BCL10-MALT1 interaction abrogates progression of diffuse large B cell lymphoma” (The Journal of Clinical Investigation, 2025).
Values joined by “and” are separate entries in the source; they are usually repeats but may differ in a detail not shown here. Equal entries are not always repeated.

Experiments:
[1] = tested on: RelB cleavage in TMD8 cells; experiment: Constitutive RelB cleavage, Western blot; format: cell-based, human; details: result in words
Method: Western blot analysis of RelB and N4BP1 cleavage was used to test the effect of small molecules on MALT1 protease activity. To this end, 3 million Jurkat T cells were pretreated with compounds for 24 hours in serum-free media, and then 5 μM MG-132 was added for 1 hour before stimulation with CD3/CD28 (Stemcell Technologies, catalog 10971), and lysed in RIPA buffer (Millipore, catalog 20-188) with protease and phosphatase inhibitor cocktail (Pierce, catalog 78446). IKKα/β phosphorylation and IκBα phosphorylation were used as measures of MALT1 scaffolding activity, while ERK1/2 phosphorylation was used as a control. Two million Jurkat T cells were treated with 1 μM M1i-124, 1 μM M1i-124d1, or DMSO in serum-free media for 16 hours, stimulated with CD3/CD28 for 0, 5, 10, or 20 minutes, and then immediately lysed in RIPA buffer with protease and phosphatase inhibitors. For experiments evaluating RelB cleavage and phosphorylation of IκBα in TMD8 cells, cells were treated with compounds for 24 hours in media containing 5% FBS. For RelB Western blot analysis, 5 μM MG-132 (Cell Signaling Technology, catalog 2194s) was added 4 hours before lysis in RIPA lysis buffer with protease/phosphatase inhibitors.

[2] = molecular target: T1, binding of Id1 to immobilized MyoD (Homo sapiens, UniProt P41134); experiment: MyoD1/ID1 ELISA (specificity control); details: for inhibition of binding of Id1 to immobilized MyoD: result in words
T1 construct: purchased Proteintech Ag13359 (GST-ID1); Ag13186 (His-MyoD1)
T1 sequence (P41134 1-155): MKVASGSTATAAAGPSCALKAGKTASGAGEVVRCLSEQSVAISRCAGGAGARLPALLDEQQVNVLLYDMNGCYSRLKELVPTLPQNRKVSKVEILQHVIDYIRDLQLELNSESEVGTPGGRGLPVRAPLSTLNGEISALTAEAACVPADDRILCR
Method: ELISA-based protein-protein interaction assay. On a high-binding 96-well ELISA microplate (Greiner Cat# 655061), 100 ng of His-tagged recombinant human full-length BCL10 protein (Novus Cat# NBP1-99064) or in 100 µl PBS was allowed to adhere overnight at 4°C. The plate was blocked with 5% BSA in PBS for 1 hour at room temperature. After washing twice with PBS-T, a mixture of 100 ng of GST-tagged recombinant human full-length MALT1 protein (Novus Biologicals Cat# H00010892-P01) and compound that was preincubated for 1 hour in 100 μl PBS was added to the plate for 1 hour at room temperature. After washing three times with PBS-T, anti-MALT1 antibody (Cell Signaling Technology, Cat# 2494) in 5% BSA in PBS was added at 1:1000 dilution for 1 hour at room temperature. After washing three times with PBS-T, HRP-conjugated secondary antibody in 5% BSA in PBS was added at 1:5000 dilution for 1 hour at room temperature. After washing three times with PBS-T, 100 µl of 3,3’,5,5’-tetramethylbenzidine (TMB) substrate solution (Thermo Scientific, Cat# 34028) was added for up to 15 minutes, and 100 µl of 2 M sulfuric acid was added to stop the reaction. The plate was read at 450 nm using a spectrophotometer (Molecular Devices SpectraMax i3). The MyoD1/ID ELISA was performed as above except that 100 ng of recombinant human His-tagged MyoD1 (Proteintech, Cat# Ag13186) was plated overnight at 4°C prior to the addition of 100 ng of recombinant human GST-ID1 (Proteintech, Cat# Ag13359) preincubated to with compounds. The anti-GST antibody (clone 26H1, Cell signaling Technology, Cat #2624) was used to detect bound ID1. […]

In the case of `O=S(=O)(NCc1ccc2c(c1)OCO2)c1ccc(Cc2ccc(S(=O)(=O)NCc3ccc4c(c3)OCO4)cc2)cc1` [M1i-124], the “RelB cleavage in TMD8 cells” value [1] is reported as “markedly reduced cleavage of RelB”, the “MyoD-Id Interaction (% of control)” value ([2]; 0.0975 µM) is reported as 75 % of control and 118.107 % of control and 86.1723 % of control and the “MyoD-Id Interaction (% of control)” value ([2]; 0.39 µM) is reported as 70.9459 % of control and 110.989 % of control and 93.988 % of control. The “MyoD-Id Interaction (% of control)” value ([2]; 1.56 µM) was 102.244 % of control and 139.153 % of control and 113.828 % of control, the “MyoD-Id Interaction (% of control)” value ([2]; 6.25 µM) was 126.689 % of control and 146.808 % of control and 132.264 % of control and the “MyoD-Id Interaction (% of control)” value ([2]; 12.5 µM) was 149.548 % of control and 131.062 % of control. For the same molecule, the remaining activity at 12.5 µM ([2]; 12.5 µM, read-out: MyoD-Id Interaction (% of control)) was 145%, the “MyoD-Id Interaction (% of control)” value ([2]; 25 µM) was 150.772 % of control and 122.599 % of control and 116.032 % of control and the “MyoD-Id Interaction (% of control)” value ([2]; 50 µM) was 152.034 % of control and 140.013 % of control. The remaining activity at 50 µM ([2]; 50 µM, read-out: MyoD-Id Interaction (% of control)) was 158%, the “MyoD-Id Interaction (% of control)” value ([2]; 100 µM) was 153.861 % of control and 138.475 % of control and 133.2 % of control and the “inhibition of binding of Id1 to immobilized MyoD” value [2] was “neither M1i-124 nor M1i-124d1 could inhibit”.
`COc1ccc(CNS(=O)(=O)c2ccc(Cc3ccc(S(=O)(=O)NCc4ccc(OC)cc4)cc3)cc2)cc1` [M1i-124d1] was tested, and the “RelB cleavage in TMD8 cells” value [1] was “markedly reduced cleavage of RelB”, the “MyoD-Id Interaction (% of control)” value ([2]; 0.0975 µM) was 78.8369 % of control and 104.379 % of control and 92.0174 % of control and the “MyoD-Id Interaction (% of control)” value ([2]; 0.39 µM) was 96.3277 % of control and 95.1904 % of control. The remaining activity at 0.39 µM ([2]; 0.39 µM, read-out: MyoD-Id Interaction (% of control)) was 80.9%, the “MyoD-Id Interaction (% of control)” value ([2]; 1.56 µM) was 85.8349 % of control and 109.633 % of control and 85.4375 % of control and the “MyoD-Id Interaction (% of control)” value ([2]; 6.25 µM) was 108.475 % of control and 92.4516 % of control. For the same molecule, the remaining activity at 6.25 µM ([2]; 6.25 µM, read-out: MyoD-Id Interaction (% of control)) was 97.9%, the “MyoD-Id Interaction (% of control)” value ([2]; 12.5 µM) was 119.401 % of control and 82.5424 % of control and 93.487 % of control and the “MyoD-Id Interaction (% of control)” value ([2]; 25 µM) was 109.677 % of control and 97.6271 % of control and 64.0281 % of control. The “MyoD-Id Interaction (% of control)” value ([2]; 50 µM) was 120.512 % of control and 93.4463 % of control and 89.2118 % of control, the “MyoD-Id Interaction (% of control)” value ([2]; 100 µM) was 139.841 % of control and 108.927 % of control and 105.812 % of control and the “inhibition of binding of Id1 to immobilized MyoD” value [2] was “neither M1i-124 nor M1i-124d1 could inhibit”.
